Laboratory results: ChEMBL document CHEMBL3826909, “Quinoxaline-based inhibitors of Ebola and Marburg VP40 egress” (Bioorg Med Chem Lett, 2016)
Calls of active or inactive are those of the source. The rule behind the calls is not given here.

How the values were obtained:
[1] = molecular target: T1, Matrix protein VP40 (Lake Victoria marburgvirus (strain Ravn-87) (MARV) (Marburg virus (strainKenya/Ravn/1987))) (UniProt Q1PDC8); experiment: Inhibition of Marburg virus VP40 PPxY L-domain motif expressed in HEK293T cells assessed as reduction in VLP budding at 1 uM relative to control; type: cell-based; conditions: HEK-293T
T1 sequence (whole entry): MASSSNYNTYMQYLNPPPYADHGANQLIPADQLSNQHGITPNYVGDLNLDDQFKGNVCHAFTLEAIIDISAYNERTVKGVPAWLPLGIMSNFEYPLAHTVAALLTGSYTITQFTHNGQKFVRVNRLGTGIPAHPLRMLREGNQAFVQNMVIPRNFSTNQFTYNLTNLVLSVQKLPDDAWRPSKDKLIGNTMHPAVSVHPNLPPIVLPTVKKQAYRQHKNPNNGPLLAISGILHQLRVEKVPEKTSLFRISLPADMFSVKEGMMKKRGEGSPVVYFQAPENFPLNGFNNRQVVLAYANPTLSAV

[2] = molecular target: T1, Matrix protein VP40 (Lake Victoria marburgvirus (strain Ravn-87) (MARV) (Marburg virus (strainKenya/Ravn/1987))); experiment: Inhibition of Marburg virus VP40 PPxY L-domain motif expressed in HEK293T cells assessed as reduction in VLP budding at 0.1 uM relative to control; type: cell-based; conditions: HEK-293T
[3] = molecular target: T1, Matrix protein VP40 (Lake Victoria marburgvirus (strain Ravn-87) (MARV) (Marburg virus (strainKenya/Ravn/1987))); experiment: Inhibition of Marburg virus VP40 PPxY L-domain motif expressed in HEK293T cells assessed as reduction in VLP budding at 0.3 uM relative to control; type: cell-based; conditions: HEK-293T
[4] = molecular target: T1, Matrix protein VP40 (Lake Victoria marburgvirus (strain Ravn-87) (MARV) (Marburg virus (strainKenya/Ravn/1987))); experiment: Inhibition of Marburg virus VP40 PPxY L-domain motif expressed in HEK293T cells assessed as reduction in VLP budding at 0.03 uM relative to control; type: cell-based; conditions: HEK-293T
Cytochrome P450 3A4 = Cytochrome P450 3A4 (Homo sapiens, UniProt P08684); experiment: Inhibition of CYP3A4 (unknown origin) using midazolam as substrate; type: ADME
[5] = Cytotoxicity against human HEK293T cells assessed as cell viability at 1 uM after 24 hrs by MTT assay relative to control; type: cell-based, HEK-293T; conditions: read-out: Activity
Liver microsome [6] = experiment: Half life in human liver microsomes; type: ADME
[7] = Cytotoxicity against human HEK293T cells assessed as cell viability at 0.01 uM after 24 hrs by MTT assay relative to control; type: cell-based, HEK-293T; conditions: read-out: Activity
[8] = Half life in mouse liver microsomes; type: ADME
[9] = molecular target: T1, Matrix protein VP40 (Lake Victoria marburgvirus (strain Ravn-87) (MARV) (Marburg virus (strainKenya/Ravn/1987))); experiment: Inhibition of Marburg virus VP40 PPxY L-domain motif-Nedd4 interaction in HEK293T cells coexpressing NYFP-Nedd4 and CYFP-mVP40 at 0.1 uM by inverted confocal microscopy based bimolecular complementation assay; type: cell-based; conditions: HEK-293T
Liver microsome [10] = experiment: Intrinsic clearance in human liver microsomes assessed per mg of protein; type: ADME
[11] = Cytotoxicity against African green monkey Vero E6 cells assessed as cell viability at 10 uM after 24 hrs by MTT assay relative to control; type: cell-based; conditions: chlorocebus sabaeus, read-out: Activity
[12] = Cytotoxicity against human HEK293T cells assessed as cell viability at 10 uM after 24 hrs by MTT assay relative to control; type: cell-based, HEK-293T; conditions: read-out: Activity
[13] = Cytotoxicity against African green monkey Vero E6 cells assessed as cell viability at 1 uM after 24 hrs by MTT assay relative to control; type: cell-based; conditions: chlorocebus sabaeus, read-out: Activity
[14] = Cytotoxicity against African green monkey Vero E6 cells assessed as cell viability at 0.1 uM after 24 hrs by MTT assay relative to control; type: cell-based; conditions: chlorocebus sabaeus, read-out: Activity
[15] = Cytotoxicity against African green monkey Vero E6 cells assessed as cell viability at 0.01 uM after 24 hrs by MTT assay relative to control; type: cell-based; conditions: chlorocebus sabaeus, read-out: Activity
[16] = system: Vesicular stomatitis virus; experiment: Effect on viral protein levels in recombinant Vesicular stomatitis virus-M40 expressing Ebola virus VP40 PPxY L-domain motif infected in HEK293T cells at 30 to 100 nM after 8 hrs by Western blot analysis relative to control; type: ADME, organism-based; conditions: hek-293t, 0.1 µM
[17] = Effect on cellular protein levels in human HEK293T cells infected with recombinant Vesicular stomatitis virus-M40 expressing Ebola virus VP40 PPxY L-domain motif at 30 to 100 nM after 8 hrs by Western blot analysis relative to control; type: ADME, cell-based; conditions: hek-293t, 0.1 µM
[18] = Cytotoxicity against human HEK293T cells assessed as cell viability at 0.1 uM after 24 hrs by MTT assay relative to control; type: cell-based, HEK-293T; conditions: read-out: Activity
[19] = molecular target: T1, Matrix protein VP40 (Lake Victoria marburgvirus (strain Ravn-87) (MARV) (Marburg virus (strainKenya/Ravn/1987))); experiment: Inhibition of Marburg virus VP40 PPxY L-domain motif expressed in HEK293T cells assessed as reduction in VLP budding at 25 uM relative to control; type: cell-based; conditions: HEK-293T
[20] = molecular target: T1, Matrix protein VP40 (Lake Victoria marburgvirus (strain Ravn-87) (MARV) (Marburg virus (strainKenya/Ravn/1987))); experiment: Inhibition of Marburg virus VP40 PPxY L-domain motif expressed in HEK293T cells assessed as reduction in VLP budding at 30 nM after 24 hrs by Western blot analysis relative to control; type: cell-based; conditions: HEK-293T
[21] = molecular target: T1, Matrix protein VP40 (Lake Victoria marburgvirus (strain Ravn-87) (MARV) (Marburg virus (strainKenya/Ravn/1987))); experiment: Inhibition of Marburg virus VP40 PPxY L-domain motif expressed in HEK293T cells assessed as reduction in VLP budding at 100 nM after 24 hrs by Western blot analysis; type: cell-based; conditions: HEK-293T
[22] = molecular target: T1, Matrix protein VP40 (Lake Victoria marburgvirus (strain Ravn-87) (MARV) (Marburg virus (strainKenya/Ravn/1987))); experiment: Inhibition of Marburg virus VP40 PPxY L-domain motif expressed in HEK293T cells assessed as reduction in VLP budding at 1 uM after 24 hrs by Western blot analysis relative to control; type: cell-based; conditions: HEK-293T
[23] = molecular target: T1, Matrix protein VP40 (Lake Victoria marburgvirus (strain Ravn-87) (MARV) (Marburg virus (strainKenya/Ravn/1987))); experiment: Inhibition of Marburg virus VP40 PPxY L-domain motif expressed in HEK293T cells assessed as reduction in VLP budding at 10 uM relative to control; type: cell-based; conditions: HEK-293T

Sequence of Cytochrome P450 3A4 (P08684 whole entry): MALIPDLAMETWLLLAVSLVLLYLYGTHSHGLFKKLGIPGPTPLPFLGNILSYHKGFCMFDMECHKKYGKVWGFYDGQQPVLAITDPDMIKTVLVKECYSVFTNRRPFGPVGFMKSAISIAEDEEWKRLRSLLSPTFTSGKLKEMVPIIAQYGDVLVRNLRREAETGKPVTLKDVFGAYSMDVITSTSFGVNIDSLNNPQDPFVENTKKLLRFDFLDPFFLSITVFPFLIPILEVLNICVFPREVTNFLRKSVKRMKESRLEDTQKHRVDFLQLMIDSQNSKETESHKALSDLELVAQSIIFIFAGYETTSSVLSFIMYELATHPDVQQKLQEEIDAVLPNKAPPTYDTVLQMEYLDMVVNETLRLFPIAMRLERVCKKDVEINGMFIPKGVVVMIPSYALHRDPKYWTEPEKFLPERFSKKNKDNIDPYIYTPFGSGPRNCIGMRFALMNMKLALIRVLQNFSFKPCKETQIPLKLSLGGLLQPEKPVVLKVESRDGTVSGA

SMILES	inhibition [1]	inhibition [2]	inhibition [4]	also measured
Cc1ccccc1NC(=O)NC(=O)COc1nc2ccccc2nc1C	100%	58%		inhibition [3]: 100%
Cc1nc2ccccc2nc1SCC(=O)N(C)C(=O)Nc1ccccc1F	inactive			
CCc1ccc(C)nc1NC(=O)NC(=O)CSc1nc2ccccc2nc1C			48%	
Cc1cccnc1NC(=O)NC(=O)CSc1nc2ccccc2nc1C		45%		
Cc1nc2ccccc2nc1SCC(=O)NC(=O)Nc1cccc(F)c1C		100%	86%	IC50 (Cytochrome P450 3A4): > 33 µM; viability at 24 h, 1 µM [5]: 60.1%; t1/2 (Liver microsome [6]): > 90 min; viability at 24 h, 0.01 µM [7]: 95.1%; t1/2 [8]: 3.5 min; inhibition [9]: Active; Intrinsic clearance (Liver microsome [10]): 0.54 mL/min; viability at 24 h, 10 µM [11]: 84%; viability at 24 h, 10 µM [12]: 63.5%; viability at 24 h, 1 µM [13]: 78.7%; viability at 24 h, 0.1 µM [14]: 92.6%; viability at 24 h, 0.01 µM [15]: 102%; Activity [16]: Non-toxic; Activity [17]: Non-toxic; viability at 24 h, 0.1 µM [18]: 70.4%
Cc1nc2ccccc2nc1SCC(=O)NC(=O)Nc1c(C)nn(C)c1C	64%			
Cc1nc2ccccc2nc1SCC(=O)NC(=O)Nc1cc(Cl)ccc1Cl			37%	
Cc1ccc(C)c(NC(=O)NC(=O)CSc2nc3ccccc3nc2C)c1			68%	IC50 (Cytochrome P450 3A4): > 33 µM; t1/2 (Liver microsome [6]): 77.2 min; t1/2 [8]: 1.9 min; Intrinsic clearance (Liver microsome [10]): 0.71 mL/min; inhibition [3]: 100%
Cc1nc2ccccc2nc1SCC(=O)NC(=O)Nc1ccccc1F	100%	98%	inactive	inhibition [3]: 100%
CCNC(=O)NC(=O)CSc1nc2ccccc2nc1C	inactive	inactive		inhibition [19]: 60%
Cc1nc2ccccc2nc1SCC(=O)NC(=O)NCc1cccs1	97%	inactive		
Cc1ccc(NC(=O)NC(=O)CSc2nc3ccccc3nc2C)nc1		96%		
Cc1nc2ccccc2nc1SCC(=O)NC(=O)N(C)c1ccccc1	inactive			
Cc1ncccc1NC(=O)NC(=O)CSc1nc2ccccc2nc1C		41%		
Cc1ccc(NC(=O)NC(=O)CSc2nc3ccccc3nc2C)c(C)c1			62%	inhibition [3]: 100%
Cc1nc2ccccc2nc1SCC(=O)NC(=O)Nc1cc[nH]n1	inactive			
Cc1nc2ccccc2nc1SCC(=O)NC(=O)Nc1ccccc1C#N	87%			
Cc1ccc(NC(=O)NC(=O)CSc2nc3ccccc3nc2C)cc1C			29%	inhibition [3]: 97%
Cc1ccc(NC(=O)NC(=O)CSc2nc3ccccc3nc2C)cn1		87%		
COc1cccc(NC(=O)NC(=O)CSc2nc3ccccc3nc2C)c1	100%	60%	inactive	inhibition [3]: 98%
Cc1ccccc1NC(=O)NC(=O)CSc1nc2ccccc2nc1C	100%	98%	83%	IC50 (Cytochrome P450 3A4): > 33 µM; viability at 24 h, 1 µM [5]: 62.8%; t1/2 (Liver microsome [6]): 46.6 min; fold change (FC) [20]: 3; viability at 24 h, 0.01 µM [7]: 98.6%; inhibition [9]: Active; viability at 24 h, 10 µM [11]: 61.7%; viability at 24 h, 10 µM [12]: 60.5%; viability at 24 h, 1 µM [13]: 71.2%; viability at 24 h, 0.1 µM [14]: 92.3%; viability at 24 h, 0.01 µM [15]: 96.8%; inhibition [21]: > 90%; viability at 24 h, 0.1 µM [18]: 71.7%
Cc1cccc(NC(=O)NC(=O)CSc2nc3ccccc3nc2C)c1	100%	inactive	inactive	inhibition [3]: 71%
Cc1ccc(NC(=O)NC(=O)COc2nc3ccccc3nc2C)cc1		70%		
Cc1nc2ccccc2nc1S(=O)(=O)CC(=O)NC(=O)Nc1ccc(F)cc1	inactive			
Cc1nc2ccccc2nc1SCC(=O)NC(=O)Nc1ccccc1	88%			t1/2 (Liver microsome [6]): 43.9 min; fold change (FC) [22]: 100; Intrinsic clearance (Liver microsome [10]): 1.66 mL/min

SMILES	inhibition [1]	inhibition [2]	inhibition [4]	also measured
O=C(CSc1nc2ccccc2nc1Cc1ccccc1)NC(=O)Nc1ccc(F)cc1	inactive			
O=C(CSc1cnc2ccccc2n1)NC(=O)Nc1ccccc1F	inactive			
Cc1ccc(F)cc1NC(=O)NC(=O)CSc1nc2ccccc2nc1C		89%		
Cc1nc2ccccc2nc1SCC(=O)NC(=O)Nc1cccc(F)c1	41%			
Cc1nc2ccccc2nc1SCC(=O)NC(=O)Nc1c(C)n[nH]c1C	50%			
Cc1c(F)cccc1NC(=O)NC(=O)CSc1nc2ccccc2nc1C(F)(F)F		inactive		
COc1ccccc1NC(=O)NC(=O)CSc1nc2ccccc2nc1C	96%	60%	inactive	inhibition [3]: 89%
Cc1nc2ccccc2nc1SCC(=O)NC(=O)Nc1cccc(C#N)c1	72%			
O=C(CSc1nc2ccccc2nc1C(F)(F)F)NC(=O)Nc1ccccc1Cl	inactive	inactive		IC50 (Cytochrome P450 3A4): > 33 µM; t1/2 (Liver microsome [6]): 71.7 min; t1/2 [8]: 49.9 min; Intrinsic clearance (Liver microsome [10]): 0.77 mL/min; inhibition [3]: inactive
COc1ccc(NC(=O)NC(=O)CSc2nc3ccccc3nc2C)cc1	100%	99%	25%	
Cc1nc2ccccc2nc1SCC(=O)NC(=O)NCc1ccccc1	60%	29%		
Cc1nc2ccccc2nc1SCC(=O)NC(=O)Nc1ccccn1	80%	inactive		
Cc1ccncc1NC(=O)NC(=O)CSc1nc2ccccc2nc1C		85%		
Cc1nc2ccccc2nc1SCC(=O)NC(=O)NC1CC1	inactive	inactive		inhibition [23]: 60%
Cc1nc2ccccc2nc1SCC(=O)NC(=O)Nc1c(C)nn(-c2ccccc2)c1C	inactive			
CCc1nc2ccccc2nc1SCC(=O)NC(=O)Nc1cccc(F)c1C	67%	inactive		t1/2 (Liver microsome [6]): 31.3 min; t1/2 [8]: 54.8 min; inhibition [3]: inactive
Cc1nc2ccccc2nc1SCC(=O)NC(=O)Nc1ccc(Cl)cc1		82%		
Cc1nc2ccccc2nc1SCC(=O)NC(=O)Nc1ccc(F)cc1	80%			
Cc1nc2ccccc2nc1SCC(=O)NC(=O)N1CCc2ccccc21	inactive			
Cc1cc(C)cc(NC(=O)NC(=O)CSc2nc3ccccc3nc2C)c1			44%	inhibition [3]: 100%
Cc1cccc(NC(=O)NC(=O)CSc2nc3ccccc3nc2C)c1C			41%	inhibition [3]: 98%
Cc1nc2ccccc2nc1SCC(=O)NC(=O)Nc1cccnc1	78%	44%		
CCc1nc2ccccc2nc1SCC(=O)NC(=O)Nc1ccccc1Cl		inactive		
Cc1cccc(C)c1NC(=O)NC(=O)CSc1nc2ccccc2nc1C			inactive	inhibition [3]: 100%
Cc1nc2ccccc2nc1SCC(=O)NC(=O)Nc1cccc(Cl)c1				inhibition [3]: 49%
